Measurements from patent US20240368619A1, “METHODS AND COMPOSITIONS FOR PPO HERBICIDE TOLERANCE” (SESVanderHave NV, priority 2021, published 2024).
Read-outs that look alike come from different tables or passages of the source.

Key:
Type in all cases: in vivo, Beta vulgaris
[1] = system: sugar beet plants carrying the R126L mutation; conditions: SAF 1X, 200 g a.i./ha, 17 days after spraying
Experimental: (§1) In other experiments, plants carrying the mutation R126L described below in Table 6 were acclimatized in soil for 3-5 weeks and screened for PPO resistance with a spray test of the PPO herbicides Saflufenacil (Brand name TREEVIX at a recommended dose of 200 g a.i./ha), Pyraflufen-ethyl (Brand name EVOLUTION at a recommended dose of 0.8l/ha, or a.i. 26.5 g/l) Saflufenacil (pure compound Sigma at a recommended dose of 200 g a.i./ha). The spray was performed at a concentration of 0.5× and 1× of the recommended dose for Saflufenacil), and 0.2× for Pyraflufen-ethyl). The pure chemical compound SAF used on the regenerated plants in vitro was also used in this screen at 1× recommended dose of 200 g ai/Ha. Water treatment was included as a control. […] In both experiments each sugar beet plant was multiplied in vitro as to include a total of minimum 4 clones or replicates of each edited sugar beet plant per herbicide treatment. The phytotoxicity effect of PPO inhibiting herbicides was measured in mutated sugar beet plants (on a set of minimum 4 clones per edited sugar beet plant) based on a scale from 0% to 100%, or 1 to 5, (i.e. 0% or 1 being no damage/no phytotoxicity observed and 100% or 5, being all plants were completely damaged or killed,) compared to wild-type plants. […]
(§2) No score is provided when the plant has not been tested, noted as NT in the table (not tested). Water treatment was included when enough plants were available. At least 4 copies per edited plant were sprayed. Scores were given on group of 4 copies per edited plant. HDR=edited plant showing the expected mutation R to L at position 126, INDEL=edited plant showing another type of edit than the expected mutation.

[2] = system: sugar beet plants edited at position 126 showing another type of edit than the expected mutation; conditions: SAF 1X, 200 g a.i./ha, 17 days after spraying
Experimental: as §1, §2

[3] = system: wild-type sugar beet plants; experiment: Spray test of PPO herbicides on control (Ctrl) sugar beet plants; conditions: SAF 1X, 200 g a.i./ha, 17 days after spraying
Experimental: as §1
No score is provided when the plant has not been tested, noted as NT in the table (not tested). […]

edited sugar beet plants = experiment: In vitro growth of regenerated edited plants on media containing SAF; conditions: media containing SAF 2.5 μM
Experimental: (§3) In other experiments, screening for resistance to PPO herbicides was done on 25 regenerated sugar beet plants obtained after transfection of guard cell protoplasts by growing these plants (8 clones or copies per plant) on media containing SAF at a concentration of 2.5 μM. Visual observation of growth was done after 20 to 28 days. Plants were scored visually according to their growth, and marked “OK” for plants showing growth, “Bit growth” for plants showing limited growth, “No” for plants showing no growth, or “Dead” for plants that were dead after SAF exposure. The concentration of SAF used in this screen was identified as impacting severely on regenerated wild-type plants obtained after protoplast isolation and regeneration from the sugar beet genotype, from which guard cell protoplasts are isolated for transfection.

[4] = system: regenerated wild-type sugar beet plants; experiment: In vitro growth of regenerated wild-type plants on media containing SAF; conditions: media containing SAF 2.5 μM; wild-type genotype
Experimental: as §3

CC(C)N(C)S(=O)(=O)NC(=O)c1cc(-n2c(=O)cc(C(F)(F)F)n(C)c2=O)c(F)cc1Cl [SAF, saflufenacil]
phytotoxicity score 1 to 5 (healthy to damaged) ([1]; event HTC003 (HDR)): 4
phytotoxicity score 1 to 5 (healthy to damaged) ([1]; event HTC007 (HDR)): 3
phytotoxicity score 1 to 5 (healthy to damaged) ([1]; event HTC013 (HDR)): 2
phytotoxicity score 1 to 5 (healthy to damaged) ([1]; event HTC015 (HDR)): 3
phytotoxicity score 1 to 5 (healthy to damaged) ([1]; event HTC018 (HDR)): 2
phytotoxicity score 1 to 5 (healthy to damaged) ([1]; event HTC024 (HDR)): 4
phytotoxicity score 1 to 5 (healthy to damaged) ([1]; event HTC046 (HDR)): 2
phytotoxicity score 1 to 5 (healthy to damaged) ([1]; event HTC056 (HDR)): 4
phytotoxicity score 1 to 5 (healthy to damaged) ([2]; event HTC001 (INDEL)): 5
phytotoxicity score 1 to 5 (healthy to damaged) ([2]; event HTC002 (INDEL)): 4
phytotoxicity score 1 to 5 (healthy to damaged) ([2]; event HTC009 (INDEL)): 4
phytotoxicity score 1 to 5 (healthy to damaged) ([2]; event HTC012 (INDEL)): 4
phytotoxicity score 1 to 5 (healthy to damaged) ([2]; event HTC014 (INDEL)): 4
phytotoxicity score 1 to 5 (healthy to damaged) ([2]; event HTC016 (INDEL)): 4
phytotoxicity score 1 to 5 (healthy to damaged) ([2]; event HTC017 (INDEL)): 4
phytotoxicity score 1 to 5 (healthy to damaged) ([2]; event HTC021 (INDEL)): 5
phytotoxicity score 1 to 5 (healthy to damaged) ([2]; event HTC023 (INDEL)): 2
phytotoxicity score 1 to 5 (healthy to damaged) ([2]; event HTC028 (INDEL)): 4
phytotoxicity score 1 to 5 (healthy to damaged) ([3]; B8M52 (Ctrl)): 5
phytotoxicity score 1 to 5 (healthy to damaged) ([3]; HTC005 (Ctrl)): 5
growth of edited plants (visual) (edited sugar beet plants; 20 to 28 days, edited plants scored as OK and Bit growth): good level of SAF tolerance
growth and plant development of edited versus wild-type plants (visual) (edited sugar beet plants; 20 days, HTC013 and HTC015 (R126L), 8 copies each, versus wild-type): Clear differences in growth, and plant development
effect on growth of regenerated wild-type plants (visual) [4]: severe growth retardation and in some cases lethal effect
